Results published in PubChem BioAssay (NCI).
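In this assay, cells in 96-well plates receive the compound at five concentrations for 48 hours. Endpoints are linearly interpolated between the surrounding concentrations. GI50 = concentration required for 50% inhibition of growth. TGI: concentration producing complete growth inhibition.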

Key:
Experiment in all cases: growth of human tumour cells (NCI), 48 h
OVCAR-8 ovarian = tested on: OVCAR-8 ovarian
HL-60(TB) leukemia = tested on: HL-60(TB) leukemia
MDA-MB-435 = tested on: MDA-MB-435
UO-31 renal = tested on: UO-31 renal
MALME-3M melanoma = tested on: MALME-3M melanoma
SNB-19 CNS = tested on: SNB-19 CNS
TK-10 renal = tested on: TK-10 renal
DU-145 prostate = tested on: DU-145 prostate
SF-268 CNS = tested on: SF-268 CNS
BT-549 breast = tested on: BT-549 breast
SR leukemia = tested on: SR leukemia
RPMI-8226 leukemia = tested on: RPMI-8226 leukemia
SK-MEL-28 melanoma = tested on: SK-MEL-28 melanoma
U251 CNS = tested on: U251 CNS
SF-295 CNS = tested on: SF-295 CNS
OVCAR-5 ovarian = tested on: OVCAR-5 ovarian
UACC-257 melanoma = tested on: UACC-257 melanoma
786-0 renal = tested on: 786-0 renal
HOP-62 NSCLC = tested on: HOP-62 NSCLC
MOLT-4 leukemia = tested on: MOLT-4 leukemia
NCI-H460 lung = tested on: NCI-H460 lung
LOX IMVI melanoma = tested on: LOX IMVI melanoma
UACC-62 melanoma = tested on: UACC-62 melanoma
NCI/ADR-RES ovarian = tested on: NCI/ADR-RES ovarian
SK-OV-3 ovarian = tested on: SK-OV-3 ovarian
MCF7 breast = tested on: MCF7 breast
RXF 393 renal = tested on: RXF 393 renal
NCI-H522 lung = tested on: NCI-H522 lung
SK-MEL-2 melanoma = tested on: SK-MEL-2 melanoma
OVCAR-4 ovarian = tested on: OVCAR-4 ovarian
OVCAR-3 ovarian = tested on: OVCAR-3 ovarian
T-47D breast = tested on: T-47D breast
KM12 colon = tested on: KM12 colon
SF-539 CNS = tested on: SF-539 CNS
EKVX NSCLC = tested on: EKVX NSCLC
SNB-75 CNS = tested on: SNB-75 CNS
A498 renal = tested on: A498 renal
CAKI-1 renal = tested on: CAKI-1 renal
HCT-15 colon = tested on: HCT-15 colon
M14 melanoma = tested on: M14 melanoma
HCC-2998 colon = tested on: HCC-2998 colon
HCT-116 colon = tested on: HCT-116 colon
IGROV1 ovarian = tested on: IGROV1 ovarian
NCI-H23 lung = tested on: NCI-H23 lung
MDA-MB-231 breast = tested on: MDA-MB-231 breast
SW-620 colon = tested on: SW-620 colon
HT29 colon = tested on: HT29 colon
ACHN renal = tested on: ACHN renal
COLO 205 colon = tested on: COLO 205 colon
NCI-H226 lung = tested on: NCI-H226 lung
A549 NSCLC = tested on: A549 NSCLC
HS 578T breast = tested on: HS 578T breast
CCRF-CEM leukemia = tested on: CCRF-CEM leukemia
K-562 leukemia = tested on: K-562 leukemia
PC-3 prostate = tested on: PC-3 prostate
SK-MEL-5 melanoma = tested on: SK-MEL-5 melanoma

SMILES: O=C1c2cc3c(cc2-c2c1c1cc(Cl)c(Cl)cc1c(=O)n2CCCn1ccnc1)OCO3
- GI50 (OVCAR-8 ovarian): < 10 nM
- TGI (OVCAR-8 ovarian): > 100 µM
- GI50 (HL-60(TB) leukemia): < 10 nM
- TGI (HL-60(TB) leukemia): 15.9 µM
- GI50 (MDA-MB-435): 16.2 nM
- TGI (MDA-MB-435): > 100 µM
- GI50 (UO-31 renal): < 10 nM
- TGI (UO-31 renal): > 100 µM
- GI50 (MALME-3M melanoma): 23.2 nM
- TGI (MALME-3M melanoma): 17 µM
- GI50 (SNB-19 CNS): < 10 nM
- TGI (SNB-19 CNS): > 100 µM
- GI50 (TK-10 renal): 85 nM
- TGI (TK-10 renal): > 100 µM
- GI50 (DU-145 prostate): < 10 nM
- TGI (DU-145 prostate): 59.9 µM
- GI50 (SF-268 CNS): < 10 nM
- TGI (SF-268 CNS): > 100 µM
- GI50 (BT-549 breast): 11.4 nM
- TGI (BT-549 breast): 28.1 µM
- GI50 (SR leukemia): < 10 nM
- TGI (SR leukemia): 1670 nM
- GI50 (RPMI-8226 leukemia): < 10 nM
- TGI (RPMI-8226 leukemia): 10.4 µM
- GI50 (SK-MEL-28 melanoma): 66.5 nM
- TGI (SK-MEL-28 melanoma): > 100 µM
- GI50 (U251 CNS): < 10 nM
- TGI (U251 CNS): 11.6 µM
- GI50 (SF-295 CNS): < 10 nM
- TGI (SF-295 CNS): 13.1 nM
- GI50 (OVCAR-5 ovarian): 23.9 nM
- TGI (OVCAR-5 ovarian): > 100 µM
- GI50 (UACC-257 melanoma): 12.2 nM
- TGI (UACC-257 melanoma): 1310 nM
- GI50 (786-0 renal): < 10 nM
- TGI (786-0 renal): 11.4 µM
- GI50 (HOP-62 NSCLC): < 10 nM
- GI50 (MOLT-4 leukemia): < 10 nM
- TGI (MOLT-4 leukemia): 10.9 µM
- GI50 (NCI-H460 lung): < 10 nM
- TGI (NCI-H460 lung): > 100 µM
- GI50 (LOX IMVI melanoma): < 10 nM
- TGI (LOX IMVI melanoma): 18.3 nM
- GI50 (UACC-62 melanoma): < 10 nM
- TGI (UACC-62 melanoma): 11.7 nM
- GI50 (NCI/ADR-RES ovarian): < 10 nM
- TGI (NCI/ADR-RES ovarian): 11.6 µM
- GI50 (SK-OV-3 ovarian): < 10 nM
- TGI (SK-OV-3 ovarian): 30.5 nM
- GI50 (MCF7 breast): < 10 nM
- TGI (MCF7 breast): 12.3 µM
- GI50 (RXF 393 renal): < 10 nM
- TGI (RXF 393 renal): 56.6 nM
- GI50 (NCI-H522 lung): < 10 nM
- TGI (NCI-H522 lung): 835 nM
- GI50 (SK-MEL-2 melanoma): 222 nM
- TGI (SK-MEL-2 melanoma): 26.7 µM
- GI50 (OVCAR-4 ovarian): 49.5 nM
- TGI (OVCAR-4 ovarian): > 100 µM
- GI50 (OVCAR-3 ovarian): 42.5 nM
- TGI (OVCAR-3 ovarian): 18.8 µM
- GI50 (T-47D breast): < 10 nM
- TGI (T-47D breast): 63.6 nM
- GI50 (KM12 colon): 24.4 nM
- TGI (KM12 colon): 37.1 µM
- GI50 (SF-539 CNS): < 10 nM
- TGI (SF-539 CNS): 20.6 nM
- GI50 (EKVX NSCLC): 55.3 nM
- TGI (EKVX NSCLC): > 100 µM
- GI50 (SNB-75 CNS): < 10 nM
- TGI (SNB-75 CNS): 17.1 µM
- GI50 (A498 renal): 10.7 nM
- TGI (A498 renal): 63.8 nM
- GI50 (CAKI-1 renal): < 10 nM
- TGI (CAKI-1 renal): > 100 µM
- GI50 (HCT-15 colon): 25.7 nM
- TGI (HCT-15 colon): > 100 µM
- GI50 (M14 melanoma): < 10 nM
- TGI (M14 melanoma): 11.8 µM
- GI50 (HCC-2998 colon): 53.8 nM
- TGI (HCC-2998 colon): > 100 µM
- GI50 (HCT-116 colon): < 10 nM
- TGI (HCT-116 colon): 17.6 µM
- GI50 (IGROV1 ovarian): 29.5 nM
- TGI (IGROV1 ovarian): > 100 µM
- GI50 (NCI-H23 lung): < 10 nM
- TGI (NCI-H23 lung): 232 nM
- GI50 (MDA-MB-231 breast): 99.6 nM
- TGI (MDA-MB-231 breast): > 100 µM
- GI50 (SW-620 colon): < 10 nM
- TGI (SW-620 colon): > 100 µM
- GI50 (HT29 colon): < 10 nM
- TGI (HT29 colon): > 100 µM
- GI50 (ACHN renal): < 10 nM
- TGI (ACHN renal): 1090 nM
- GI50 (COLO 205 colon): < 10 nM
- TGI (COLO 205 colon): > 100 µM
- GI50 (NCI-H226 lung): < 10 nM
- GI50 (A549 NSCLC): < 10 nM
- TGI (A549 NSCLC): > 100 µM
- GI50 (HS 578T breast): 17.1 µM
- TGI (HS 578T breast): > 100 µM
- GI50 (CCRF-CEM leukemia): < 10 nM
- TGI (CCRF-CEM leukemia): > 100 µM
- GI50 (K-562 leukemia): 11.1 nM
- TGI (K-562 leukemia): 20.8 µM
- GI50 (PC-3 prostate): 17.1 nM
- TGI (PC-3 prostate): > 100 µM
- GI50 (SK-MEL-5 melanoma): < 10 nM
- TGI (SK-MEL-5 melanoma): 40.7 nM
